Patent US8722682B2, “Sulfated benzimidazolone derivatives having mixed serotonin receptor affinity” (Sprout Pharmaceuticals, Inc., priority 2006, dated 2014)

Columns and labels:
5-HT2A receptor = target: T1, 5-HT2A receptor (Homo sapiens, UniProt P28223); experiment: 5-HT2A receptor binding, [3H]-Ketanserin displacement; conditions: human recombinant CHO-K1 cells, [3H]-Ketanserin 0.5 nM
T1 construct: expressed in transfected cells; host or cells: CHO-K1
Method: (§1) Binding studies can be carried out to determine the affinity of the compounds for 5-HT1A and 5-HT2A receptors
Human recombinant CHO-K1 cells can be used. Displacement experiments are performed by incubating the cells in 50 mM Tris-HCL, pH 7.7 in the presence of [^3H]-Ketanserin (0.5 nM) at 25° C. for 60 min. Non specific binding was determined in the presence of 1 μM Mianserin.
The test compounds, along with the positive control compound ketanserin are tested over 10-log unit concentrations for their ability to compete for [^3H]-Ketanserin (Saucier C and Albert P R. J. Neurochem. 68:1998, 1997. Bonhaus D W et al., Br J Pharmacol. 115:622, 1995). The assays are terminated by rapid vacuum filtration over glass fiber filters. The radioactivity is counted on a β-counter, and the data are analyzed by a nonlinear, iterative, curve-fitting computer program. Where presented, IC50 values are determined by a non-linear, least squares regression analysis using Data Analysis Toolboxä (MDL Information Systems, San Leandro, Calif., USA). Where inhibition constants (Ki) are presented, the Ki values are calculated using the equation of Cheng and Prusoff (Cheng, Y., Prusoff, W. H., Biochem. Pharmacol. 22:3099-3108, 1973) using the observed IC50 of the tested compound, the concentration of radioligand employed in the assay, and the historical values for the Ki of the ligand).

5-HT1A receptor = target: T2, 5-HT1A receptor (Homo sapiens, UniProt P08908); experiment: 5-HT1A receptor binding, [3H]-8-OH-DPAT displacement; conditions: human recombinant CHO-K1 cells, [3H]-8-OH-DPAT 1.5 nM
T2 construct: expressed in transfected cells; host or cells: CHO-K1
T2 sequence (P08908 1-422): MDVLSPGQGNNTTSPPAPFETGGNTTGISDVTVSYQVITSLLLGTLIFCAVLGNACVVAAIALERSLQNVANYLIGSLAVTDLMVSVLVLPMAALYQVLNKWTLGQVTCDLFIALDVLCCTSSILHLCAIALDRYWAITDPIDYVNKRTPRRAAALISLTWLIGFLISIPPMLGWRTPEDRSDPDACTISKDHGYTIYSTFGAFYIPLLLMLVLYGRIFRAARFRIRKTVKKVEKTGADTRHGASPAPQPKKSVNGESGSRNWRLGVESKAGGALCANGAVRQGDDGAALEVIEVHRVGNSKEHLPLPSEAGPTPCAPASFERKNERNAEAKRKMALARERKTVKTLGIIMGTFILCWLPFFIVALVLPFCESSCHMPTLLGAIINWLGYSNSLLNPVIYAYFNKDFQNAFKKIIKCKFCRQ
Method: as §1
Human recombinant CHO-K1 cells are used. Displacement experiments can be performed by incubating the cells in 50 mM Tris-HCL, pH 7.4, 0.1% ascorbic acid, 0.5 mM EDTA, 10 mM MgSo4 and in the presence of [^3H]-8-OH-DPAT (1.5 nM) at 27° C. for 60 min. Non specific binding was determined in the presence of 10 μM mertergoline.
The test compounds dissolved in DMSO, along with the positive control compound metergoline are tested over 10-log unit concentrations for their ability to compete for [^3H]8-OH-DPAT binding (May J A, et al., J Pharmacol Exp Ther. 306(1):301, 2003. Martin G R and Humphrey P P A Neuropharmacol. 33:261, 1994). […] The radioactivity is counted on a β-counter, and the data are analyzed by a nonlinear, iterative, curve-fitting computer program.
Where presented, IC50 values are determined by a non-linear, least squares regression analysis using Data Analysis Toolboxä (MDL Information Systems, San Leandro, Calif., USA). Where inhibition constants (Ki) are presented, the Ki values are calculated using the equation of Cheng and Prusoff (Cheng, Y., Prusoff, W. H., Biochem. Pharmacol. 22:3099-3108, 1973) using the observed IC50 of the tested compound, the concentration of radioligand employed in the assay, and the historical values for the Ki of the ligand).

T1 sequence (P28223 whole entry): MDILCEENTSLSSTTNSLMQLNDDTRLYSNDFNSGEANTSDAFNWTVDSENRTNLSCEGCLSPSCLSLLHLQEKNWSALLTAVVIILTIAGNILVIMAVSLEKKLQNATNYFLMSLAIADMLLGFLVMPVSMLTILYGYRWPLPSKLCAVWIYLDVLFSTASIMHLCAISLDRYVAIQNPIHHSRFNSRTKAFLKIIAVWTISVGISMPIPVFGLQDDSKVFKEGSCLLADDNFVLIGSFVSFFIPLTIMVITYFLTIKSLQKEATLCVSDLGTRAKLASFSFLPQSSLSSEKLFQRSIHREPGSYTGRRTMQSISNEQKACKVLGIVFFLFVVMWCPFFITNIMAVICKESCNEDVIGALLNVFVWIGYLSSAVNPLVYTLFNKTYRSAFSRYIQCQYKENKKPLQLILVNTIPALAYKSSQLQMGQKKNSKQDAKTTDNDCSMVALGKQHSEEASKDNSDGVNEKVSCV

Ki (5-HT2A receptor): 207 nM | Ki (5-HT1A receptor): 808 nM
SMILES: O=c1[nH]c2ccc(OS(=O)(=O)O)cc2n1CCN1CCN(c2cccc(C(F)(F)F)c2)CC1 [I(b), {2-oxo-3-{2-[4-(3-trifluoromethyl-phenyl)-piperazin-1-yl]-ethyl}-2,3-dihydro-1H-benzimidazol-5-yl}mono sulfuric acid ester]
